Data reported in ChEMBL document CHEMBL3991601, “The target landscape of clinical kinase drugs” (Science, 2017).
Activity calls are given as the source filed them. Rule as the data show it, for most assays here: actives have a measured Kd and inactives only a lower limit.

Legend:
[1] = biological target: T1, Dual specificity mitogen-activated protein kinase kinase 5 (Homo sapiens, UniProt Q13163)
T1 sequence (Q13163 whole entry): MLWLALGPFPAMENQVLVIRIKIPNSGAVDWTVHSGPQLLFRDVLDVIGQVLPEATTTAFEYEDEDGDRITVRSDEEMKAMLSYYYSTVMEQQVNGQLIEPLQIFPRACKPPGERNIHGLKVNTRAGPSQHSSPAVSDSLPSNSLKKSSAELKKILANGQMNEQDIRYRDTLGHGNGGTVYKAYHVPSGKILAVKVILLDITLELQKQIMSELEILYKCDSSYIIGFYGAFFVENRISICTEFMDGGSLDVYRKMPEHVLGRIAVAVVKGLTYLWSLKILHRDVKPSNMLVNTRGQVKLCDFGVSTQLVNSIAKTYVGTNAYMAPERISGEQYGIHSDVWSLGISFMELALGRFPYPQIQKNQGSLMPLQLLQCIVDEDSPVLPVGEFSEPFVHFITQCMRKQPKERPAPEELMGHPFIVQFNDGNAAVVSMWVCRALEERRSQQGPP

[2] = biological target: T2, Eukaryotic translation initiation factor 5B (Homo sapiens, UniProt O60841)
T2 sequence (O60841 whole entry): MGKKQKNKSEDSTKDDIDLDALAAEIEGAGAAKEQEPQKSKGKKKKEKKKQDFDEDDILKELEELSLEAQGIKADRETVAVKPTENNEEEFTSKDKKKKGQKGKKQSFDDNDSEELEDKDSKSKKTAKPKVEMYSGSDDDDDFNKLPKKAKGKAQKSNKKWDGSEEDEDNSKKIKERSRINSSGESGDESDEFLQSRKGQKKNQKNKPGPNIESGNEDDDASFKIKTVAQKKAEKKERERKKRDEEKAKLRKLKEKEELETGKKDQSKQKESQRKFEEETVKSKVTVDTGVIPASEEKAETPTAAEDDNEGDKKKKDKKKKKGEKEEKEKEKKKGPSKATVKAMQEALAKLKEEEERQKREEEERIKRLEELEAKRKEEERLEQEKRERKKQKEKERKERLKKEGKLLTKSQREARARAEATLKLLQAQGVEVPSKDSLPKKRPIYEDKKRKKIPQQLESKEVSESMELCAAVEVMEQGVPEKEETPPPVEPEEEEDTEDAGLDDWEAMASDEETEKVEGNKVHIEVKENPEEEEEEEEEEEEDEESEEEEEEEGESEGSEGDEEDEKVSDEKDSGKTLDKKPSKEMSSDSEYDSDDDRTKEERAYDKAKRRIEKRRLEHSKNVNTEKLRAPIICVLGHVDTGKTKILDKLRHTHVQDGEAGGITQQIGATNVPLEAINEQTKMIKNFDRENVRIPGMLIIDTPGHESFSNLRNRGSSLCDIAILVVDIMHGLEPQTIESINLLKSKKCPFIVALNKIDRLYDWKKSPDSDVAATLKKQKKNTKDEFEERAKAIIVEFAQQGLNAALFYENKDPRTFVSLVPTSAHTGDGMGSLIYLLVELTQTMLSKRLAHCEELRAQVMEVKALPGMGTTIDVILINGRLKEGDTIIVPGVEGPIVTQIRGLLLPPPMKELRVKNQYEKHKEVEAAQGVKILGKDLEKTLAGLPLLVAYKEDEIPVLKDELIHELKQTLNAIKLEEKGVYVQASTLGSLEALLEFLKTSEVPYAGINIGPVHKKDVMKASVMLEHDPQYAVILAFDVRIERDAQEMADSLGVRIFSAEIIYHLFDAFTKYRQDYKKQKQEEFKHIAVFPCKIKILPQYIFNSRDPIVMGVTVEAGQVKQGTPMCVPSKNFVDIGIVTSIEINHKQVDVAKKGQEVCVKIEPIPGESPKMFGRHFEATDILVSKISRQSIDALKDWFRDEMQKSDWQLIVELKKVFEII

[3] = biological target: T3, Serine/threonine-protein kinase ULK3 (Homo sapiens, UniProt Q6PHR2)
T3 sequence (Q6PHR2 whole entry): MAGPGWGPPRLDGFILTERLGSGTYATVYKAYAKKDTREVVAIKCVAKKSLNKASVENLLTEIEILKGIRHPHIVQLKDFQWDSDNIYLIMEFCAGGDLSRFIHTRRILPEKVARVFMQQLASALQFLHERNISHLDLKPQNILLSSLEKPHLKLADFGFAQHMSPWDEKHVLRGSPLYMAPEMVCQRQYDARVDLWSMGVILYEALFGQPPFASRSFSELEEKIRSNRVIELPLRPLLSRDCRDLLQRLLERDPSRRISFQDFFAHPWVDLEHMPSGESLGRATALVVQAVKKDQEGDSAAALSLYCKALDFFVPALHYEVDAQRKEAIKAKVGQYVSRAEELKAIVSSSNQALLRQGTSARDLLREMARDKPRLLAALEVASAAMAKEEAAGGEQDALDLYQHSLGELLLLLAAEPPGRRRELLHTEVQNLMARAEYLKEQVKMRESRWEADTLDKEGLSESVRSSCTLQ

[4] = biological target: Ras-related protein Rab-6A (Homo sapiens, UniProt P20340)
[5] = biological target: Ribosomal protein S6 kinase alpha-6 (Homo sapiens, UniProt Q9UK32)
[6] = biological target: Wee1-like protein kinase (Homo sapiens, UniProt P30291)
[7] = biological target: T4, Mitogen-activated protein kinase kinase kinase 3 (Homo sapiens, UniProt Q99759)
T4 sequence (Q99759 whole entry): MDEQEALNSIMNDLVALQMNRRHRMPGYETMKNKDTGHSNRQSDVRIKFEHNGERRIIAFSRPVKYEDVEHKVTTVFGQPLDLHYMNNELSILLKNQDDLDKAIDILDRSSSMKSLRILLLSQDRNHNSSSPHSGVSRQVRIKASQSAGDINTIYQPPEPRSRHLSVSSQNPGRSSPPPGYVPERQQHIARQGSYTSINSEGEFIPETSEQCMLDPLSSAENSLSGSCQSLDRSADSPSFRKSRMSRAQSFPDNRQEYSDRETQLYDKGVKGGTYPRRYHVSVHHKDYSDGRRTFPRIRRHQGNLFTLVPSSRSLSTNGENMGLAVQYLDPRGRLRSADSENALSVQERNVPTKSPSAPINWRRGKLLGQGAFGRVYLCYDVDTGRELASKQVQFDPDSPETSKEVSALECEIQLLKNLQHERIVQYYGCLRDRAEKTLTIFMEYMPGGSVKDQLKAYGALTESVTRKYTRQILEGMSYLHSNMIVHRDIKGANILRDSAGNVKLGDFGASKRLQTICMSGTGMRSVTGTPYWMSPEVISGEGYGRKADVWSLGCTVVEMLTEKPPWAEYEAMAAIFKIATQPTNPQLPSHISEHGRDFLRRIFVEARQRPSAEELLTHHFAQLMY
Also: in the data inactive means no Kd found up to 30 µM.

Chain of Ribosomal protein S6 kinase alpha-6 (Q9UK32 whole entry): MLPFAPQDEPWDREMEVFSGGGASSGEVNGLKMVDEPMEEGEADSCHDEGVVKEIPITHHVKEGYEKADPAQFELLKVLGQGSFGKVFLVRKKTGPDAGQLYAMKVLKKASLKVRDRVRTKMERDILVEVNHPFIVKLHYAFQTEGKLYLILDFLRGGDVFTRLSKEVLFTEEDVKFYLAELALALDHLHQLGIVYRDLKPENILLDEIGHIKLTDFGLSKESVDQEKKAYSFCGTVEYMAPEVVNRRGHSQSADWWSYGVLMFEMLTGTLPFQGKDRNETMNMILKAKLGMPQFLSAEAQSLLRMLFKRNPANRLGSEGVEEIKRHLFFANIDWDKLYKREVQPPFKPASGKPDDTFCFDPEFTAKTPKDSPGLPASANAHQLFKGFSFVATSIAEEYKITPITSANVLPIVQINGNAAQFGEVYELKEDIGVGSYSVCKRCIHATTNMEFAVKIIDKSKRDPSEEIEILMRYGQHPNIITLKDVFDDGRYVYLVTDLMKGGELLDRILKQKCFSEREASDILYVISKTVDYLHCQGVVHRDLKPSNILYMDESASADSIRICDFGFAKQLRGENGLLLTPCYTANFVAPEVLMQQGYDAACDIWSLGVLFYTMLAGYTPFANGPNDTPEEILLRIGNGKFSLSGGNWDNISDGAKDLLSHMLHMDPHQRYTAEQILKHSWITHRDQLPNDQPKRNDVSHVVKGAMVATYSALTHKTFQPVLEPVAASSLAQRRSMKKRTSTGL
Chain of Wee1-like protein kinase (P30291 whole entry): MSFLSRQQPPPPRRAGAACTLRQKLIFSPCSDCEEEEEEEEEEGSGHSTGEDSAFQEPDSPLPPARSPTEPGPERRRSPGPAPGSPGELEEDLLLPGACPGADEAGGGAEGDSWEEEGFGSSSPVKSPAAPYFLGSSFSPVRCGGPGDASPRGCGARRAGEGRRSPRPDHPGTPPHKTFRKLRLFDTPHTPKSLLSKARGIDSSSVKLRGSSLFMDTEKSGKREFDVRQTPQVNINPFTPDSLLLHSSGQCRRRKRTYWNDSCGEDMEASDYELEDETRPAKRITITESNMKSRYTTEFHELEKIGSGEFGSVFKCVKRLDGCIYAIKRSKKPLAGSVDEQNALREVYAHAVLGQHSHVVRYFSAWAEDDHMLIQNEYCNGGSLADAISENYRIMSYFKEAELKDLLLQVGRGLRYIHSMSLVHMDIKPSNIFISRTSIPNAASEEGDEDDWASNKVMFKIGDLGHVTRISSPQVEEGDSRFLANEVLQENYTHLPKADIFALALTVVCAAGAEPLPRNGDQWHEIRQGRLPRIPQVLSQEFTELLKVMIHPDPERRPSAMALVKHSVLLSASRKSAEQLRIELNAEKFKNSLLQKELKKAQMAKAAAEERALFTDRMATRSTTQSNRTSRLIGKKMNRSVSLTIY
Chain of Ras-related protein Rab-6A (P20340 whole entry): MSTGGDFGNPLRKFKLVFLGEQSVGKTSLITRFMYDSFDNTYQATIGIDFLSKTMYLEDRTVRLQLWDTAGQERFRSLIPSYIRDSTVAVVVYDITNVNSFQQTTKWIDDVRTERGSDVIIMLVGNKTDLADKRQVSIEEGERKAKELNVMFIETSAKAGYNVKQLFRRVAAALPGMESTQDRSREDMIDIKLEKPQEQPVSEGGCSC

| Compound | Kd [1] | Kd [2] | Kd [3] | Kd [4] | Kd [5] | Kd [6] | Kd [7] |
| --- | --- | --- | --- | --- | --- | --- | --- |
| CCS(=O)(=O)c1cccc(-c2cc(C(=O)NC3CCN(C)CC3)c(C)c3[nH]c4ncc(C)cc4c23)c1 [TAK-901] | 6.8 µM (active) | > 30 µM (inactive) | > 30 µM (inactive) | > 30 µM (inactive) | 0.899 µM (active) | > 30 µM (inactive) | > 30 µM (inactive) |
| CO[C@H]1C[C@@H]2CC[C@@H](C)[C@@](O)(O2)C(=O)C(=O)N2CCCC[C@H]2C(=O)O[C@H]([C@H](C)C[C@@H]2CC[C@@H](OC(=O)C(C)(CO)CO)[C@H](OC)C2)CC(=O)[C@H](C)/C=C(\C)[C@@H](O)[C@@H](OC)C(=O)[C@H](C)C[C@H](C)/C=C/C=C/C=C/1C [TEMSIROLIMUS] | > 30 µM (inactive) | > 30 µM (inactive) | > 30 µM (inactive) | > 30 µM (inactive) | > 30 µM (inactive) | > 30 µM (inactive) | > 30 µM (inactive) |
| O=C(Cc1ccc(-c2ccc(OCCN3CCOCC3)cc2)cn1)NCc1ccccc1 [TIRBANIBULIN] | > 30 µM (inactive) | > 30 µM (inactive) | > 30 µM (inactive) | > 30 µM (inactive) | > 30 µM (inactive) | > 30 µM (inactive) | > 30 µM (inactive) |
| O=C1NC(=O)[C@@H](c2cn3c4c(cccc24)CCC3)[C@@H]1c1c[nH]c2ccccc12 [TIVANTINIB] | > 30 µM (inactive) | 0.232 µM | > 30 µM (inactive) | > 30 µM (inactive) | > 30 µM (inactive) | > 30 µM (inactive) | > 30 µM (inactive) |
| Cc1cc(Nc2ncnc3ccc(NC4=NC(C)(C)CO4)cc23)ccc1Oc1ccn2ncnc2c1 [TUCATINIB] | > 30 µM (inactive) | > 30 µM (inactive) | > 30 µM (inactive) | > 30 µM (inactive) | > 30 µM (inactive) | > 30 µM (inactive) | > 30 µM (inactive) |
| CC(C)c1cc(CNc2nc(Nc3cc(C4CC4)[nH]n3)cc(N3CCN(C)CC3)n2)on1 [XL-228] | > 30 µM (inactive) | > 30 µM (inactive) | 0.492 µM (active) | > 30 µM (inactive) | > 30 µM (inactive) | > 30 µM (inactive) | > 30 µM (inactive) |
| C[C@@H](N)c1ccc(C(=O)Nc2ccnc3[nH]ccc23)cc1 [Y-39983] | > 30 µM (inactive) | > 30 µM (inactive) | > 30 µM (inactive) | > 30 µM (inactive) | > 30 µM (inactive) | > 30 µM (inactive) | > 30 µM (inactive) |
| CN1C/C=C/CCOc2cccc(c2)-c2ccnc(n2)Nc2cccc(c2)C1 [ZOTIRACICLIB] | > 30 µM (inactive) | > 30 µM (inactive) | > 30 µM (inactive) | > 30 µM (inactive) | > 30 µM (inactive) | > 30 µM (inactive) | > 30 µM (inactive) |
